≈ marks a conversion by molar mass, not a printed value. Numbered stars: 1 amine (or outer) side, 2 acyl side, 3 side chain; on linkers, the order of the positions; unused ones are H or OH. Square brackets hold non-standard residues; d marks the D form. Peptide text beside a SMILES is read from it. X2 = COc1cccc2[nH]c(C)c(C[C@H](N[*:1])C(=O)[*:2])c12; dAla(ψthiazole) = C[C@@H](N[*:1])c1nc(C(=O)[*:2])cs1; Trp(4-OMe) = COc1cccc2[nH]cc(C[C@H](N)C(=O)O)c12; X3 = O=C(c1csc([C@@H](CO)N[*:1])n1)[*:2]; dDab = NCC[C@@H](N)C(=O)O; Orn = NCCC[C@H](N)C(=O)O; dAbu = CC[C@@H](N)C(=O)O; Dab = NCC[C@H](N)C(=O)O; Dha = C=C(N)C(=O)O; Sar = CNCC(=O)O

This experiment concerns Pseudomonas aeruginosa. As to the kind of experiment: Antimicrobial activity against Pseudomonas aeruginosa assessed as reduction in bacterial growth. The format is functional, organism-based.

The IC50 is the point on the concentration scale where inhibition reaches its midpoint. As for `C=C1NC(=O)[C@@H](C)NC(=O)CNC(=O)[C@H](Cc2c[nH]c3cccc(OC)c23)NC(=O)[C@H](Cc2c[nH]c3ccccc23)NC(=O)c2csc(n2)[C@@H](CO)NC(=O)CN(C)C1=O` (cyclo([Dha][Sar][X3]W[Trp(4-OMe)]G[dA])), the concentration for half-maximal inhibition (IC50) came out at 5 µg/mL (≈ 5.95 µM).

`C=C1NC(=O)[C@@H](CC)NC(=O)CNC(=O)[C@H](Cc2c[nH]c3cccc(OC)c23)NC(=O)[C@H](Cc2c[nH]c3ccccc23)NC(=O)c2csc(n2)[C@@H](C)NC(=O)CN(C)C1=O` (cyclo([Dha][Sar][dAla(ψthiazole)]W[Trp(4-OMe)]G[dAbu])): the IC50 was 0.08 µg/mL (≈ 0.0954 µM).

As usually defined, the MIC is the lowest concentration found to suppress growth. Take `CC(C)[C@H](NC(=O)[C@H](Cc1c[nH]c2ccccc12)NC(=O)[C@H](CCCNC(=N)N)NC(=O)[C@H](CCCNC(=N)N)NC(=O)[C@@H](NC(=O)[C@@H](NC(=O)[C@H](CCCNC(=N)N)NC(=O)[C@@H](NC(=O)[C@@H](NC(=O)[C@H](CCCNC(=N)N)NC(=O)[C@H](CCCNC(=N)N)NC(=O)[C@@H](NC(=O)[C@H](Cc1c[nH]c2ccccc12)NC(=O)[C@H](CCCNC(=N)N)NC(=O)[C@H](CCCNC(=N)N)NC(=O)[C@@H](NC(=O)[C@H](CCCNC(=N)N)NC(=O)[C@H](CCCNC(=N)N)NC(=O)[C@@H](NC(=O)[C@H](Cc1c[nH]c2ccccc12)NC(=O)[C@H](CCCNC(=N)N)NC(=O)[C@@H](N)CCCNC(=N)N)C(C)C)C(C)C)C(C)C)C(C)C)C(C)C)C(C)C)C(C)C)C(=O)N[C@@H](CCCNC(=N)N)C(=O)N[C@@H](CCCNC(=N)N)C(=O)O` (H-RRWVRRVRRWVRRVVRVVRRWVRR-OH): the MIC is 0.4 µM (≈ 1.36 µg/mL).

On to `C=C1NC(=O)[C@@H](C)NC(=O)CNC(=O)[C@H](Cc2c(C)[nH]c3cccc(OC)c23)NC(=O)[C@H](Cc2c[nH]c3ccccc23)NC(=O)c2csc(n2)[C@@H](C)NC(=O)CN(C)C1=O` (cyclo(W[X2]G[dA][Dha][Sar][dAla(ψthiazole)])), for which the IC50 was 0.1 µg/mL (≈ 0.119 µM).

Consider `C=C1NC(=O)[C@@H](CC)NC(=O)CNC(=O)[C@H](Cc2c[nH]c3cccc(OC)c23)NC(=O)[C@H](Cc2c[nH]c3ccccc23)NC(=O)c2csc(n2)[C@@H](CO)NC(=O)CN(C)C1=O` (cyclo([Dha][Sar][X3]W[Trp(4-OMe)]G[dAbu])), for which the IC50 was found to be 4 µg/mL (≈ 4.68 µM).

The MIC50 is the lowest concentration that inhibits either 50% of growth or 50% of the strains tested, depending on the study. `CC[C@H](C)[C@@H]1NC(=O)[C@H](Cc2c[nH]c3ccccc23)NC(=O)[C@H]([C@@H](C)O)NC(=O)[C@@H]2CCCN2C(=O)[C@H]2CCCN2C(=O)[C@H](CO)NC(=O)[C@H](C)NC(=O)[C@H](CCN)NC(=O)[C@H](CCN)NC(=O)[C@H](Cc2c[nH]c3ccccc23)NC(=O)[C@H](CCN)NC(=O)[C@@H](CCN)NC(=O)[C@H](CCCN)NC(=O)[C@H](CCN)NC1=O` [MUREPAVADIN] (cyclo(TWI[Dab][Orn][dDab][Dab]W[Dab][Dab]AS[dP]P)): the MIC50 was found to be 10 µg/mL (≈ 6.44 µM).

Regarding `C=C1NC(=O)[C@@H](CC)NC(=O)CNC(=O)[C@H](Cc2c(C)[nH]c3cccc(OC)c23)NC(=O)[C@H](Cc2c[nH]c3ccccc23)NC(=O)c2csc(n2)[C@@H](C)NC(=O)CN(C)C1=O` (cyclo(W[X2]G[dAbu][Dha][Sar][dAla(ψthiazole)])), the IC50 worked out at 0.14 µg/mL (≈ 0.164 µM).

One may read the MIC90 as the lowest concentration that inhibits either 90% of growth or 90% of the strains tested, depending on the study. Turning to `CN(C)c1cc(NC(=O)CNC(C)(C)C)c(O)c2c1C[C@H]1C[C@H]3[C@H](N(C)C)C(O)=C(C(N)=O)C(=O)[C@@]3(O)C(O)=C1C2=O` [TIGECYCLINE], the MIC90 was determined as 16 µg/mL (≈ 27.3 µM).

`CC[C@H](C)[C@H](NC(=O)[C@H](CCCNC(=N)N)NC(=O)[C@H](CCCNC(=N)N)NC(=O)[C@H](Cc1ccccc1)NC(=O)[C@H](CC(C)C)NC(=O)[C@H](CCCNC(=N)N)NC(=O)[C@@H](N)CCCNC(=N)N)C(=O)N[C@@H](CC(C)C)C(=O)N[C@@H](CCCNC(=N)N)C(=O)N[C@@H](Cc1ccc(O)cc1)C(=O)N[C@@H](CC(C)C)C(=O)O` (H-RRLFRRILRYL-OH): the MIC was 2.5 µM (≈ 3.9 µg/mL).

With `C=C1NC(=O)[C@@H](C)NC(=O)CNC(=O)[C@H](Cc2c[nH]c3cccc(OC)c23)NC(=O)[C@H](Cc2c[nH]c3ccccc23)NC(=O)c2csc(n2)[C@@H](C)NC(=O)CN(C)C1=O` (cyclo(W[Trp(4-OMe)]G[dA][Dha][Sar][dAla(ψthiazole)])), the half-inhibitory concentration (IC50) is 0.12 µg/mL (≈ 0.145 µM).

For the origin of these results see ChEMBL document CHEMBL5257018, “Novel Strategies for the Treatment of Pseudomonas aeruginosa Infections” (J Med Chem, 2016).
